Measured values from ChEMBL document CHEMBL6096698, “Discovery of a Selective and Orally Bioavailable RET Degrader with Effectiveness in Various Mutations” (J Med Chem, 2025).

Experiments:
BaF3 [1] = assay: Antiproliferative activity against mouse BaF3 cells stably expressing KIF5B-RET incubated for 72 hrs by CCK8 assay; assay type: functional, cell-based; details: BaF3, 72 h
BaF3 [2] = assay: Antiproliferative activity against mouse BaF3 cells stably expressing KIF5B-RET V804M mutant incubated for 72 hrs by CCK8 assay; assay type: functional, cell-based; details: BaF3, 72 h
BaF3 [3] = assay: Antiproliferative activity against mouse BaF3 cells stably expressing KIF5B-RET G810C mutant incubated for 72 hrs by CCK8 assay; assay type: functional, cell-based; details: BaF3, 72 h
BaF3 [4] = assay: Antiproliferative activity against mouse BaF3 cells stably expressing KIF5B-RET G810S mutant incubated for 72 hrs by CCK8 assay; assay type: functional, cell-based; details: BaF3, 72 h
BaF3 [5] = assay: Antiproliferative activity against mouse BaF3 cells stably expressing CCDC6-RET V804M mutant incubated for 72 hrs by CCK8 assay; assay type: functional, cell-based; details: BaF3, 72 h
BaF3 [6] = assay: Antiproliferative activity against mouse BaF3 cells stably expressing CCDC6-RET G810R mutant incubated for 72 hrs by CCK8 assay; assay type: functional, cell-based; details: BaF3, 72 h
HeLa = assay: Cytotoxicity against human HeLa cells; assay type: functional, cell-based
HL-60 = assay: Cytotoxicity against human HL-60 cells; assay type: functional, cell-based
[7] = Cytotoxicity against human HEK293 cells; assay type: toxicity, cell-based
[8] = target: T1, Proto-oncogene tyrosine-protein kinase receptor Ret (Homo sapiens, UniProt P07949); assay: Inhibition of RET (unknown origin) preincubated for 10 mins followed by substrate/ATP addition measured after 30 mins by HTRF assay
BaF3 [9] = assay: PROTAC activity at CRBN/KIF5B-RET (unknown origin) expressed in mouse BaF3 cells assessed as induction of RET degradation at 1 to 100 nM incubated for 24 hrs by immunoblot analysis relative to control; assay type: cell-based; details: dose 1-100 nM
[10] = PROTAC activity at CRBN/KIF5B-RET G810C mutant (unknown origin) expressed in mouse BaF3 cells assessed as induction of RET G810C mutant degradation incubated for 24 hrs by immunoblot analysis; assay type: cell-based; details: BaF3, 24 h
[11] = target: T1, Proto-oncogene tyrosine-protein kinase receptor Ret; assay: Inhibition of RET (unknown origin) at 10 nM by kinase profiling analysis relative to control
[12] = Induction of apoptosis in mouse BaF3 cells stably expressing KIF5B-RET G810C mutant assessed as viable cells at 10 nM incubated for 48 hrs by Annexin V-FITC/PI staining based flow cytometry (reference value: 92.21 %); assay type: functional; details: read-out: Activity
[13] = Induction of apoptosis in mouse BaF3 cells stably expressing KIF5B-RET G810C mutant assessed as early apoptotic cells at 10 nM incubated for 48 hrs by Annexin V-FITC/PI staining based flow cytometry (reference value: 0.86 %); assay type: functional
[14] = Induction of apoptosis in mouse BaF3 cells stably expressing KIF5B-RET G810C mutant assessed as late apoptotic cells at 10 nM incubated for 48 hrs by Annexin V-FITC/PI staining based flow cytometry (reference value: 5.99 %); assay type: functional
[15] = Induction of apoptosis in mouse BaF3 cells stably expressing KIF5B-RET G810C mutant assessed as necrotic cells at 10 nM incubated for 48 hrs by Annexin V-FITC/PI staining based flow cytometry (reference value: 0.94 %); assay type: functional
[16] = Induction of apoptosis in mouse BaF3 cells stably expressing KIF5B-RET G810C mutant assessed as viable cells at 20 nM incubated for 48 hrs by Annexin V-FITC/PI staining based flow cytometry (reference value: 92.21 %); assay type: functional; details: read-out: Activity
[17] = Induction of apoptosis in mouse BaF3 cells stably expressing KIF5B-RET G810C mutant assessed as late apoptotic cells at 20 nM incubated for 48 hrs by Annexin V-FITC/PI staining based flow cytometry (reference value: 5.99 %); assay type: functional
[18] = Induction of apoptosis in mouse BaF3 cells stably expressing KIF5B-RET G810C mutant assessed as early apoptotic cells at 40 nM incubated for 48 hrs by Annexin V-FITC/PI staining based flow cytometry (reference value: 0.86 %); assay type: functional
[19] = Induction of apoptosis in mouse BaF3 cells stably expressing KIF5B-RET G810C mutant assessed as late apoptotic cells at 40 nM incubated for 48 hrs by Annexin V-FITC/PI staining based flow cytometry (reference value: 5.99 %); assay type: functional
[20] = Induction of apoptosis in mouse BaF3 cells stably expressing KIF5B-RET G810C mutant assessed as necrotic cells at 40 nM incubated for 48 hrs by Annexin V-FITC/PI staining based flow cytometry (reference value: 0.94 %); assay type: functional
[21] = Induction of apoptosis in mouse BaF3 cells stably expressing KIF5B-RET G810C mutant assessed as apoptotic cells at 40 nM incubated for 48 hrs by Annexin V-FITC/PI staining based flow cytometry (reference value: 6.7 %); assay type: functional
[22] = Clearance in Sprague-Dawley rat at 1 mg/kg, iv measured for 24 hrs by LC-MS/MS analysis; assay type: ADME, organism-based; details: in vivo
[23] = Toxicity in BALB/c nu/nu mouse implanted with mouse BaF3 cells stably expressing KIF5B-RET G810C mutant assessed as body weight loss at 10 mg/kg, po qd treated for 10 days; assay type: organism-based; details: in vivo, 240 h, time 10 day

T1 sequence (P07949 whole entry): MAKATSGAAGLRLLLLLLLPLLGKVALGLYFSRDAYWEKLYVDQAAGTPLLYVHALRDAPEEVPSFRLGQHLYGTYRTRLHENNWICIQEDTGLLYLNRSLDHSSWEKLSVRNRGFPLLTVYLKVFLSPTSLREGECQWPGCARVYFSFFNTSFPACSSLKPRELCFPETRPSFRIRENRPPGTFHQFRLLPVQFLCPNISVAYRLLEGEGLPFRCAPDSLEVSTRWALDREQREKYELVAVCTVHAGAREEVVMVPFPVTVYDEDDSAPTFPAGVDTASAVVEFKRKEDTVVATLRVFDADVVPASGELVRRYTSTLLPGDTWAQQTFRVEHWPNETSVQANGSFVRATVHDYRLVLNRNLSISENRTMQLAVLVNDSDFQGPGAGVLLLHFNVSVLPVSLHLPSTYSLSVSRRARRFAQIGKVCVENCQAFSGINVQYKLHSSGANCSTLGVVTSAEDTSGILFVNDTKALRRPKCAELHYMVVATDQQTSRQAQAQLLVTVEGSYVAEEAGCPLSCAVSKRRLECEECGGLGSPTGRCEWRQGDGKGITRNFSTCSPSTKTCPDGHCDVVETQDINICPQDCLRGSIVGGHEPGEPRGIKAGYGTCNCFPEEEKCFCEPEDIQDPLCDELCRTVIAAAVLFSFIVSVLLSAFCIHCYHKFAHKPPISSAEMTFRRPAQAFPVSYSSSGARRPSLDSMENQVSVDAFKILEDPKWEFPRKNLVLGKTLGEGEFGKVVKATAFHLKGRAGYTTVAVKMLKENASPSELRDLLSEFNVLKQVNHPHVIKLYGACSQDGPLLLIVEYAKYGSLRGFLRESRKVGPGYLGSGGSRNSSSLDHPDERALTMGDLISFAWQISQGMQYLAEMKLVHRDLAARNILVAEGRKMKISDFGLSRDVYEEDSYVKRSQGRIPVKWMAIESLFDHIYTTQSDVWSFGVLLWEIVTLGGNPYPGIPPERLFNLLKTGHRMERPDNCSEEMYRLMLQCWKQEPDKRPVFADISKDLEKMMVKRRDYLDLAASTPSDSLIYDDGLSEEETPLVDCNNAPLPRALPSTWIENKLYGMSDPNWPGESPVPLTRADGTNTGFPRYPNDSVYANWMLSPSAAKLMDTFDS

Work on COc1ccc(CN2C3CC2CN(c2ccc(-c4cc(N5CCC(N6CCN(CCCC#Cc7cccc8c7CN(C7CCC(=O)NC7=O)C8=O)CC6)CC5)cn5ncc(C#N)c45)cn2)C3)cn1 (stereo not given) yielded an IC50 (BaF3 [1]) of 2.6 nM, an IC50 (BaF3 [2]) of 5.2 nM and an IC50 (BaF3 [3]) of 5.3 nM. It also gave an IC50 (BaF3 [4]) of 22.6 nM, an IC50 (BaF3 [5]) of 4.5 nM and an IC50 (BaF3 [6]) of 122 nM. The IC50 (HeLa) was greater than 5000 nM, the IC50 (HL-60) was greater than 5000 nM and the IC50 [7] was greater than 5000 nM. For the same compound, the IC50 [8] was 0.371 nM, the Emax (BaF3 [9]) was 92% and the DC50 [10] was 11.7 nM. It also gave an inhibition [11] greater than 50%, a viability at 0.01 µM [12] of 64.3% and an Activity [13] of 18.33%. It also gave an Activity [14] of 15.87%, an Activity [15] of 1.45% and a viability at 0.02 µM [16] of 43.4%. The Activity [17] was 17.41%, the Activity [18] was 56.22% and the Activity [19] was 15.31%. The Activity [20] was 0.54%, the Activity [21] was 71.3% and the clearance [22] was 52.8 mL/min/kg. The Activity [23] was “Non-toxic”.
